Laboratory results from PubChem BioAssay AID248 (DTP/NCI, 2004).
Several values for one entry are separate records, joined by “and”; a condition that tells them apart may be missing. Equal values may be shown once. Inconclusive results and toxic doses are left out. No stated cut-off is given here; in the data, active means T/C of 150% or more; inactive means T/C below 125%.

System: L1210 leukemia ip in BDF1 mice, survival T/C
Test: NCI In Vivo Anticancer Drug Screen. Data for tumor model L1210 Leukemia (intraperitoneal) in B6D2F1 (BDF1) mice
Settings: endpoint: mean survival time, higher = longer survival
Outline: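 Transplanted-tumor mice were given test agent; controls received vehicle only. Survival readings from the two groups were divided (treated over control).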

[1] = dose: 50.0 mg/kg/injection, schedule: Q01DX009 (ip), vehicle: saline with Tween-80
[2] = dose: 100.0 mg/kg/injection, schedule: Q01DX009 (ip), vehicle: saline with Tween-80
[3] = dose: 100.0 mg/kg/injection, schedule: Q04DX003 (ip), vehicle: saline with Tween-80
[4] = dose: 200.0 mg/kg/injection, schedule: Q01DX009 (ip), vehicle: saline with Tween-80
[5] = dose: 200.0 mg/kg/injection, schedule: Q04DX003 (ip), vehicle: saline with Tween-80
[6] = dose: 400.0 mg/kg/injection, schedule: Q04DX003 (ip), vehicle: saline with Tween-80
[7] = dose: 100.0 mg/kg/injection, schedule: Q01DX001 (ip), vehicle: Klucel (hydroxypropylcellulose) (HPC)
[8] = dose: 200.0 mg/kg/injection, schedule: Q01DX001 (ip), vehicle: Klucel (hydroxypropylcellulose) (HPC)
[9] = dose: 400.0 mg/kg/injection, schedule: Q01DX001 (ip), vehicle: Klucel (hydroxypropylcellulose) (HPC)
[10] = dose: 100.0 mg/kg/injection, schedule: Q01DX009 (ip), vehicle: Klucel (hydroxypropylcellulose) (HPC)
[11] = dose: 200.0 mg/kg/injection, schedule: Q01DX009 (ip), vehicle: Klucel (hydroxypropylcellulose) (HPC)
[12] = dose: 200.0 mg/kg/injection, schedule: Q04DX003 (ip), vehicle: Klucel (hydroxypropylcellulose) (HPC)
[13] = dose: 400.0 mg/kg/injection, schedule: Q01DX009 (ip), vehicle: Klucel (hydroxypropylcellulose) (HPC)
[14] = dose: 400.0 mg/kg/injection, schedule: Q04DX003 (ip), vehicle: Klucel (hydroxypropylcellulose) (HPC)
[15] = dose: 25.0 mg/kg/injection, schedule: Q04DX002 (ip), vehicle: saline
[16] = dose: 100.0 mg/kg/injection, schedule: Q04DX003 (ip), vehicle: Klucel (hydroxypropylcellulose) (HPC)

Measured: T/C

O=C(N/N=C/c1ccc(O)cc1O)C(O)(c1ccccc1)c1ccccc1
inactive: dose: 100.0 mg/kg/injection, schedule: Q01DX001 (ip), vehicle: carboxymethylcellulose (CMC) 106 % of control | dose: 200.0 mg/kg/injection, schedule: Q01DX001 (ip), vehicle: carboxymethylcellulose (CMC) 106 % of control | dose: 400.0 mg/kg/injection, schedule: Q01DX001 (ip), vehicle: carboxymethylcellulose (CMC) 108 % of control

CC[N+](CC)(CCO)CCCCCCCCCC[N+](CC)(CC)CCO
inactive: dose: 0.15 mg/kg/injection, schedule: Q04DX003 (ip), vehicle: saline 100 % of control | dose: 0.3 mg/kg/injection, schedule: Q04DX003 (ip), vehicle: saline 103 % of control | dose: 0.6 mg/kg/injection, schedule: Q04DX003 (ip), vehicle: saline 105 % of control

[Cl][Fe]([Cl])([Cl])[Cl].c1ccc(-c2cc(-c3ccccc3)[o+]c(-c3ccccc3)c2)cc1
inactive: dose: 25.0 mg/kg/injection, schedule: Q01DX009 (ip), vehicle: saline with Tween-80 87 % of control | [1] 88 % of control | [2] 90 % of control

Cc1ccc(C(=O)O)cc1S(=O)(=O)F
inactive: [2] 96 % of control | [3] 107 % of control | [4] 96 % of control | [5] 91 % of control | dose: 400.0 mg/kg/injection, schedule: Q01DX009 (ip), vehicle: saline with Tween-80 90 % of control | [6] 91 % of control

NS(=O)(=O)c1ccc(NC(=O)Nc2cccc(CNC(=O)COc3ccc(Cl)cc3C(=O)O)c2)cc1
inactive: [7] 98 % of control | [8] 91 % of control | [9] 98 % of control

O=[As](O)(c1cccc(Cl)c1)C1CCCCC1O (stereo unspecified)
inactive: dose: 25.0 mg/kg/injection, schedule: Q04DX003 (ip), vehicle: saline with Tween-80 91 % of control | dose: 50.0 mg/kg/injection, schedule: Q04DX003 (ip), vehicle: saline with Tween-80 89 % of control

CCOC(=O)c1ccc(SC(Cl)(Cl)Cl)cc1
inactive: dose: 100.0 mg/kg/injection, schedule: Q01DX001 (ip), vehicle: alcohol 98 % of control | dose: 200.0 mg/kg/injection, schedule: Q01DX001 (ip), vehicle: alcohol 107 % of control | dose: 400.0 mg/kg/injection, schedule: Q01DX001 (ip), vehicle: alcohol 120 % of control

CCSC(SCC)C(OC(C)=O)C(OC(C)=O)C(OC(C)=O)C(COC(c1ccccc1)(c1ccccc1)c1ccccc1)OC(C)=O (stereo unspecified)
inactive: dose: 100.0 mg/kg/injection, schedule: Q04DX002 (ip), vehicle: saline with Tween-80 101 % of control | dose: 200.0 mg/kg/injection, schedule: Q04DX002 (ip), vehicle: saline with Tween-80 89 % of control

O=C(Nc1ccc([N+](=O)[O-])cn1)Nc1cc([N+](=O)[O-])ccc1F
inactive: [7] 93 % of control | [10] 94 % of control and 89 % of control | dose: 100.0 mg/kg/injection, schedule: Q04DX002 (ip), vehicle: Klucel (hydroxypropylcellulose) (HPC) 95 % of control and 102 % of control | [8] 100 % of control | [11] 94 % of control and 89 % of control | dose: 200.0 mg/kg/injection, schedule: Q04DX002 (ip), vehicle: Klucel (hydroxypropylcellulose) (HPC) 92 % of control and 102 % of control | [12] 87 % of control | [9] 94 % of control | [13] 100 % of control | dose: 400.0 mg/kg/injection, schedule: Q04DX002 (ip), vehicle: Klucel (hydroxypropylcellulose) (HPC) 94 % of control and 95 % of control | [14] 92 % of control

CCN(C)CCC(CC=C(C)C)(C(N)=O)c1cccc2ccccc12 (stereo unspecified)
inactive: dose: 12.5 mg/kg/injection, schedule: Q04DX002 (ip), vehicle: saline 100 % of control | [15] 87 % of control

O=C(O)/C=C/c1cccc(O)c1
inactive: [10] 98 % of control | [16] 92 % of control | [11] 102 % of control | [12] 97 % of control | [13] 97 % of control | [14] 98 % of control

NC1=NCCS1
inactive: [15] 103 % of control | dose: 50.0 mg/kg/injection, schedule: Q04DX002 (ip), vehicle: saline 110 % of control | dose: 100.0 mg/kg/injection, schedule: Q04DX002 (ip), vehicle: saline 95 % of control and 103 % of control

CC1CP(=O)(Cc2ccccc2)C(c2ccccc2)=C1O (stereo unspecified)
inactive: [16] 90 % of control | [12] 93 % of control | [14] 96 % of control

CC[CH2][Sn]([CH2]CC)([O]S(C)(=O)=O)[O]S(C)(=O)=O
inactive: dose: 1.56 mg/kg/injection, schedule: Q01DX009 (ip), vehicle: Klucel (hydroxypropylcellulose) (HPC) 115 % of control | dose: 3.12 mg/kg/injection, schedule: Q01DX009 (ip), vehicle: Klucel (hydroxypropylcellulose) (HPC) 97 % of control

Cc1c(C)c2c(C(N)=O)c3ccccc3nc2c2ccccc12
inactive: dose: 50.0 mg/kg/injection, schedule: Q04DX003 (ip), vehicle: Klucel (hydroxypropylcellulose) (HPC) 100 % of control | [16] 100 % of control | [12] 92 % of control | [14] 97 % of control

O=[N+]([O-])c1ccc(OCc2ccc(S(=O)(=O)F)cc2)c(Cl)c1
inactive: dose: 100.0 mg/kg/injection, schedule: Q04DX003 (ip), vehicle: other 97 % of control | dose: 200.0 mg/kg/injection, schedule: Q04DX003 (ip), vehicle: other 97 % of control | dose: 400.0 mg/kg/injection, schedule: Q04DX003 (ip), vehicle: other 92 % of control

O=CNNc1ccc([N+](=O)[O-])cc1
inactive: dose: 50.0 mg/kg/injection, schedule: Q01DX009 (ip), vehicle: Klucel (hydroxypropylcellulose) (HPC) 97 % of control | [10] 100 % of control | [16] 94 % of control | [11] 86 % of control | [12] 94 % of control | [14] 94 % of control

CC(C)(C)NC(=O)/C=C\C(=O)O
inactive: dose: 100.0 mg/kg/injection, schedule: Q01DX009 (ip), vehicle: gum acacia 98 % of control | [16] 103 % of control | dose: 200.0 mg/kg/injection, schedule: Q01DX009 (ip), vehicle: gum acacia 95 % of control | [12] 105 % of control | dose: 400.0 mg/kg/injection, schedule: Q01DX009 (ip), vehicle: gum acacia 90 % of control | [14] 92 % of control

CC(=O)C(C(=N)C#N)C(=O)Nc1ccccc1 (stereo unspecified)
inactive: [3] 101 % of control | [5] 104 % of control | [6] 101 % of control

c1ccc(C[N+]23CCN(CC2)CC3)cc1
inactive: dose: 12.5 mg/kg/injection, schedule: Q01DX009 (ip), vehicle: saline 119 % of control | dose: 25.0 mg/kg/injection, schedule: Q01DX009 (ip), vehicle: saline 109 % of control | dose: 50.0 mg/kg/injection, schedule: Q01DX009 (ip), vehicle: saline 108 % of control

COc1cc(C=O)ccc1OC(=O)Nc1ccc(Cl)cc1C(F)(F)F
inactive: [1] 89 % of control | [2] 100 % of control | [4] 96 % of control

C[N+]1(CC(O)COc2ccc(Nc3ccc(N)c4c3C(=O)c3ccccc3C4=O)cc2)CCOCC1 (stereo unspecified)
inactive: dose: 100.0 mg/kg/injection, schedule: Q01DX001 (ip), vehicle: acetone 90 % of control
